The source of these data is patent US9150840B2, “Isolated bacterial strain of Achromobacter sp. MTCC 5605 and a highly enantioselective epoxide hydrolase isolated therefrom” (COUNCIL OF SCIENTIFIC & INDUSTRIAL RESEARCH, priority 2011, dated 2015).

Where two headings read alike, the source gives them in different places.

For assay [1], the system named is epoxide hydrolase from Achromobacter sp. MTCC 5605. The assay is classed as biochemical. As to conditions: pH 8.
Assay [2] has as its system Achromobacter sp. MTCC 5605. Put plainly: Antibiotic sensitivity of the isolated strain. The assay is classed as cell-based.

Regarding `O[C@H](CS)[C@H](O)CS` (racemic) [dithiothreitol], the “Inhibition of epoxide hydrolase activity” value in assay [1] was “none of them showed any inhibition”.

As to `C[C@@H]1[C@H](O)[C@@H](C)/C=C/C=C/C=C/C=C/C=C/C=C/C=C/[C@H](O[C@@H]2O[C@H](C)[C@@H](O)[C@H](N)[C@@H]2O)C[C@@H]2O[C@](O)(C[C@@H](O)C[C@@H](O)[C@H](O)CC[C@@H](O)C[C@@H](O)CC(=O)O[C@H]1C)C[C@H](O)[C@H]2C(=O)O` [Amphotericin B], the Antibiotic sensitivity entry in assay [2] was “Resistant to Penicillin-G (10 units), Methicillin (5 mcg),”.

As for `O=C(N[C@H](CO)[C@H](O)c1ccc([N+](=O)[O-])cc1)C(Cl)Cl` [Chloramphenicol], the Antibiotic sensitivity entry in assay [2] was “Sensitive to Erythromycin (10 mcg), Gentamycin (10 mcg),”.

On to `O=C(O)c1cn(C2CC2)c2cc(N3CCNCC3)c(F)cc2c1=O` [Ciprofloxacin], for which, in assay [2], the Antibiotic sensitivity result was “Sensitive to Erythromycin (10 mcg), Gentamycin (10 mcg),”.

For the compound `CC[C@H]1OC(=O)[C@H](C)[C@@H](O[C@H]2C[C@@](C)(OC)[C@@H](O)[C@H](C)O2)[C@H](C)[C@@H](O[C@@H]2O[C@H](C)C[C@H](N(C)C)[C@H]2O)[C@](C)(O)C[C@@H](C)C(=O)[C@H](C)[C@@H](O)[C@]1(C)O` [Erythromycin], the Antibiotic sensitivity entry in assay [2] is recorded as “Sensitive to Erythromycin (10 mcg), Gentamycin (10 mcg),”.

In the case of `COc1cccc(OC)c1C(=O)N[C@@H]1C(=O)N2[C@@H]1SC(C)(C)[C@@H]2C(=O)O` [Methicillin], the Antibiotic sensitivity entry in assay [2] was “Resistant to Penicillin-G (10 units), Methicillin (5 mcg),”.

As to `C[C@@H]1[C@H](O)[C@@H](C)/C=C/C=C/CC/C=C/C=C/C=C/C=C/C(O[C@H]2O[C@H](C)[C@@H](O)[C@H](N)[C@@H]2O)CC2O[C@](O)(CC(O)C(O)CCC(O)CC(O)CC(O)CC(=O)O[C@H]1C)CC(O)C2C(=O)O` (stereo partly drawn) [Nystatin], the Antibiotic sensitivity result in assay [2] was “Resistant to Penicillin-G (10 units), Methicillin (5 mcg),”.

On to `CC1(C)S[C@@H]2[C@H](NC(=O)Cc3ccccc3)C(=O)N2[C@H]1C(=O)O` [Penicillin-G], for which the Antibiotic sensitivity entry in assay [2] is reported as “Resistant to Penicillin-G (10 units), Methicillin (5 mcg),”.

Consider `CCCCCCCCCCCCCCCC[N+](C)(C)C.[Br-]` [cetyltrimethylammonium bromide], for which the “Inhibition of epoxide hydrolase activity” value in assay [1] is given as “none of them showed any inhibition”.

Turning to `CCOC(=O)OC(=O)OCC` [diethyl pyrocarbonate], the “Inhibition of epoxide hydrolase activity” value in assay [1] is “none of them showed any inhibition”.

With `O=C(O)CN(CCN(CC(=O)O)CC(=O)O)CC(=O)O` [ethylenediaminetetraacetic acid], in assay [1], the “Inhibition of epoxide hydrolase activity” value was “none of them showed any inhibition”.

As to `NO` [hydroxylamine], in assay [1], the “Inhibition of epoxide hydrolase activity” value is on record as “none of them showed any inhibition”.

For `NNc1ccccc1` [phenyl hydrazine], the “Inhibition of epoxide hydrolase activity” value in assay [1] is “none of them showed any inhibition”.

As for `CCCCCCCCCCCCOS(=O)(=O)[O-].[Na+]` [sodium dodecyl sulphate], the “Inhibition of epoxide hydrolase activity” value in assay [1] is “none of them showed any inhibition”.

Turning to Gentamycin, the Antibiotic sensitivity entry in assay [2] (amount per antibiotic as printed (5-30 mcg, 10 units)) is reported as “Sensitive to Erythromycin (10 mcg), Gentamycin (10 mcg),”.
